Test results reported in publication PMC11295118, “Harnessing the Intrinsic Chemical Reactivity of the Mycotoxin Patulin for Immunosensing” (Analytical Chemistry, 2024).
Counter-ions that a name gives are not always drawn.

System: monoclonal antibodies raised against BSA–Ia
Assay: Specificity of the monoclonal antibodies by competitive ELISA
Format: binding, mice
Details: for recognition by the antibodies: competitors tested separately (without derivatization)
From the text: The high affinity of the rabbit antisera for patulin after its transformation into adduct I motivated us to pursue the production of monoclonal antibodies (mAbs), given their high value in industry for the development of rapid commercial assays. To this end, standard hybridoma technology was employed with splenocytes from mice immunized with the bioconjugate BSA–Ia, the immunogen that elicited the best response in rabbits (Supporting Information). From two independent cell fusion experiments, three antibody-producing hybridomas capable of recognizing adduct I were generated. Following affinity purification, the mAbs were characterized by direct and indirect competitive ELISA using the homologous and the heterologous conjugate, i.e., based on hapten Ia or Ib, respectively. As summarized in Table S2, the three antibodies successfully recognized both coating conjugates (OVA–Ia and OVA–Ib), yielding IC50 values for patulin below 7.0 nM. […] In the direct competitive format, even better IC50 values were found with mAbs #13 and #17 when used with the homologous enzyme tracer HRP–Ia (IC50 = 0.7–0.8 nM). […]
dissolved in 8‐10 mL of 20 mM phosphate buffer, pH 7.4, and filtered through a nitrocellulose membrane (0.45 μm pore diameter). The resulting filtrate was purified by affinity chromatography with a 5 mL HiTrap Protein G HP column, and the antibody‐containing fractions were gathered and the buffer was exchanged to 20 mM phosphate buffer, pH 7.4, using Amicon Ultra 4 10k centrifugal devices. Final antibody concentration was calculated using the absorption at 280 nm and a molar extinction coefficient of 1.4 L g‐1 c m ‐1. The purified antibodies were precipitated with 1 volume of saturated ammonium sulphate for long‐term storage at 4 °C. […]
Antibody‐coated direct competitive ELISA. […] Following incubation during 10 min at rt, the reaction was stopped by adding 100 µL per well of 1 M H2SO4, and the absorbance was […]
Following incubation during 10 min at rt, the reaction was stopped by adding 100 µL per well of 1 M H2SO4, and the absorbance was immediately read. […]

SMILES	recognition by the antibodies	inhibition curves compared with patulin after reacting with 7a (adduct I or derivatized patulin used as competitors)
[Na][S]c1ccccc1[S][Na] [7a, sodium salt of benzene-1,2-dithiol]	did not recognize	
O=C1C=C2C(=CCOC2O)O1 (stereo not drawn) [patulin]	did not recognize	
O=C/C(CC(=O)O)=C1\Sc2ccccc2S[C@H]1CO [adduct I]		overlapped
